ChEMBL document CHEMBL1142472, “New ferrocenic pyrrolo[1,2-a]quinoxaline derivatives: synthesis, and in vitro antimalarial activity” (Bioorg Med Chem, 2008)
Active and inactive are the calls of the source. No cut-off for these calls is given here.

Molecular target: T1, Histidine-rich protein PFHRP-II (Plasmodium falciparum) (UniProt P05227)
T1 sequence (whole entry): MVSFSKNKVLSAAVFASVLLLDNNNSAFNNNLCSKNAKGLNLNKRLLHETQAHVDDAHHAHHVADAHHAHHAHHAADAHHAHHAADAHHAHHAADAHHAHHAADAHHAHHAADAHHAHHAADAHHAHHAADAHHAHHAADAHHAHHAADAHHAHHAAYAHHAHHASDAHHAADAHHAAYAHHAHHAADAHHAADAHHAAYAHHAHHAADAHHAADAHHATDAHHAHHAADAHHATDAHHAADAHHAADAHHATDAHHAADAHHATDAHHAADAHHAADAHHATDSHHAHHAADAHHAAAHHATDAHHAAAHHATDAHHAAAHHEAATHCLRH
Experiment: Inhibition of beta-hematin formation assessed as drug: hematin molar ratio causing inhibition of hem polymerization after 24 hrs by HPIA method
Assay type: functional

| SMILES | Activity | Ratio IC50 |
| --- | --- | --- |
| COc1cc(NS(=O)(=O)c2ccc(N)cc2)nc(OC)n1 | inactive |  |
| C[C@@H]1CC[C@H]2[C@@H](C)C(=O)O[C@@H]3O[C@@]4(C)CC[C@@H]1[C@]32OO4 |  | 1.5 |
